Blank lines part the entries; values can stand above or below the molecule they belong to.
Legend:
[1] = target: T1, M4 muscarinic receptor (Homo sapiens, UniProt P08173); test: Functional mobilization of intracellular calcium (FLIPR) in M4-CHO cells; type: cell-based; conditions: Table 4; for Emax: 100% efficacy is the maximum response obtained with the Carbachol control; for M4 Activity: modulating M4 receptor
T1 construct: expressed in transfected cells; host or cells: CHO (M4-CHO)
T1 sequence (P08173 1-479): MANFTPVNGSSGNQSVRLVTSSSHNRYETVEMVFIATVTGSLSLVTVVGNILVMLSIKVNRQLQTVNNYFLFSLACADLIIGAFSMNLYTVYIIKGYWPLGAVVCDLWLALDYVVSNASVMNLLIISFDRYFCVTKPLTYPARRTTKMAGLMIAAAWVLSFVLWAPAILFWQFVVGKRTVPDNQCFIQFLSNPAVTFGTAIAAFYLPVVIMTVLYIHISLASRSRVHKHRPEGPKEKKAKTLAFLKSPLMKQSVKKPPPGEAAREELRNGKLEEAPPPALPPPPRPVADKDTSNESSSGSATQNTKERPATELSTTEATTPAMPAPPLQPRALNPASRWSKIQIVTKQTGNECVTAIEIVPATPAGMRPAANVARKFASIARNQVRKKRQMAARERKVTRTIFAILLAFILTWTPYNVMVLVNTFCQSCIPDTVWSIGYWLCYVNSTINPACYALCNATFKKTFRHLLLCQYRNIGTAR
Summary of the method: (§1)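 Measured via Fluo-3 fluorescence on a FLIPR, CHO cells with either muscarinic subtype received compound in 0.5% DMSO. Antagonism was assessed after 15 min pre-incubation followed by carbachol at each subtype's EC80; agonism from compound addition alone.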

[2] = target: T2, M1 muscarinic receptor (Homo sapiens, UniProt P11229); test: Functional mobilization of intracellular calcium (FLIPR) in M1-CHO cells; type: cell-based; conditions: Table 4; for Emax: 100% efficacy is the maximum response obtained with the Carbachol control; for M1 Activity: modulating M1 receptor
T2 construct: expressed in transfected cells; host or cells: CHO (M1-CHO)
T2 sequence (P11229 1-460): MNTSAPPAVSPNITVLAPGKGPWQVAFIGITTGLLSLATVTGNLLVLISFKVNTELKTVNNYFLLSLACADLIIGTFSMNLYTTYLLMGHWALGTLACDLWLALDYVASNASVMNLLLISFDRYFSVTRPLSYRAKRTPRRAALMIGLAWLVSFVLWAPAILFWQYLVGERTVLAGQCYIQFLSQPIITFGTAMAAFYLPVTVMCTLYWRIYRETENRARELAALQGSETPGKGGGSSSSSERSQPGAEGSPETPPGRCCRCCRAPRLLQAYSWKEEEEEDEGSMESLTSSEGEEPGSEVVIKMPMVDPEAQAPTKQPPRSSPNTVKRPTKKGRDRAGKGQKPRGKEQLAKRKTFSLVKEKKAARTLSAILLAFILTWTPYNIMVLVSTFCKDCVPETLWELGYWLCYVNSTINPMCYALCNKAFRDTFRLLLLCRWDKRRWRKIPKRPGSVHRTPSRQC
Summary of the method: as §1

Structure (SMILES): CC(=O)N[C@H]1CCC2(CCN(CC3CC4C=CC3C4)CC2)c2ccccc21 (stereo partly shown) [compound 740]
Emax [1]: 25 to 100%
M4 Activity [1]: xxx (activity was measured to be less than 2.0 μM)
Emax [2]: 25 to 100%
M1 Activity [2]: xxx (activity was measured to be less than 2.0 μM)

Structure (SMILES): CC(=O)NC1CCC2(CCN(CCC3CCCN(C(=O)OCC(C)C)C3)CC2)c2ccccc21 (stereo not shown) [compound 741]
Emax [1]: < 25%
M4 Activity [1]: x (activity was measured to be greater than 5.0 μM)
Emax [2]: < 25%
M1 Activity [2]: x (activity was measured to be greater than 5.0 μM)

Structure (SMILES): CC(=O)N1CC2(CCN(C3CC4CCC(C3)N4C(=O)OC(C)C)CC2)c2ccccc21 (stereo not shown) [compound 742]
Emax [1]: 25 to 100%
M4 Activity [1]: xxx (activity was measured to be less than 2.0 μM)
Emax [2]: 25 to 100%
M1 Activity [2]: xxx (activity was measured to be less than 2.0 μM)

Structure (SMILES): CCC(C)C(=O)N1C2CCC1CC(N1CCC3(CC1)CN(C(C)=O)c1ccccc13)C2 (stereo not shown) [compound 743]
Emax [1]: < 25%
M4 Activity [1]: x (activity was measured to be greater than 5.0 μM)
Emax [2]: < 25%
M1 Activity [2]: x (activity was measured to be greater than 5.0 μM)

Structure (SMILES): O=C(N[C@H]1CCC2(CCN(C3CC4CCC(C4)C3)CC2)c2ccccc21)C1CC1 (stereo partly shown) [compound 744]
Emax [1]: 25 to 100%
M4 Activity [1]: xxx (activity was measured to be less than 2.0 μM)
Emax [2]: 25 to 100%
M1 Activity [2]: xxx (activity was measured to be less than 2.0 μM)

Structure (SMILES): CCOC(=O)N1C2CCC1CC(N1CCCC3(CC1)CN(C(C)=O)c1ccc(F)cc13)C2 (stereo not shown) [compound 746]
Emax [1]: 25 to 100%
M4 Activity [1]: xxx (activity was measured to be less than 2.0 μM)
Emax [2]: 25 to 100%
M1 Activity [2]: xxx (activity was measured to be less than 2.0 μM)

Structure (SMILES): C#CCCOC(=O)N1C2CCC1CC(N1CCC3(CC1)CN(C(C)=O)c1ccccc13)C2 (stereo not shown) [compound 747]
Emax [1]: 25 to 100%
M4 Activity [1]: xxx (activity was measured to be less than 2.0 μM)
Emax [2]: 25 to 100%
M1 Activity [2]: xxx (activity was measured to be less than 2.0 μM)

Structure (SMILES): CCCOC(=O)N1CCCC(N2CCC3(CC2)CN(C(=O)N(C)C)c2ccc(F)cc23)CC1 (stereo not shown) [compound 749]
Emax [1]: 25 to 100%
M4 Activity [1]: xxx (activity was measured to be less than 2.0 μM)
Emax [2]: 25 to 100%
M1 Activity [2]: xxx (activity was measured to be less than 2.0 μM)

Structure (SMILES): CCOC(=O)N1CCC(N2CCC3(CC2)CN(C(=O)N(CC)CC)c2ccccc23)CC1 [compound 750]
Emax [1]: 25 to 100%
M4 Activity [1]: xxx (activity was measured to be less than 2.0 μM)
Emax [2]: 25 to 100%
M1 Activity [2]: xxx (activity was measured to be less than 2.0 μM)

Structure (SMILES): CCOC(=O)N1CCC(N2CCC3(CC2)CN(C2CCCCC2=O)c2ccc(F)cc23)CC1 (stereo not shown) [compound 751]
Emax [1]: 25 to 100%
M4 Activity [1]: xxx (activity was measured to be less than 2.0 μM)
Emax [2]: 25 to 100%
M1 Activity [2]: xxx (activity was measured to be less than 2.0 μM)

Structure (SMILES): CCOC(=O)N1CCC(N2CCC3(CC2)CN(c2cnccn2)c2ccc(F)cc23)CC1 [compound 752]
Emax [1]: 25 to 100%
M4 Activity [1]: xxx (activity was measured to be less than 2.0 μM)
Emax [2]: 25 to 100%
M1 Activity [2]: xxx (activity was measured to be less than 2.0 μM)

Structure (SMILES): COC(=O)N1CCC(N2CCC3(CC2)CN(C(C)=O)c2ccccc23)CC1 [compound 753]
Emax [1]: 25 to 100%
M4 Activity [1]: xx (activity was measured to be between 2.0 μM and 5.0 μM)
Emax [2]: 25 to 100%
M1 Activity [2]: xx (activity was measured to be between 2.0 μM and 5.0 μM)

Structure (SMILES): CCOC(=O)N1C2CCC1CC(N1CCC3(CC1)CN(C(C)=O)c1ccc(OC)cc13)C2 (stereo not shown) [compound 754]
Emax [1]: 25 to 100%
M4 Activity [1]: xxx (activity was measured to be less than 2.0 μM)
Emax [2]: 25 to 100%
M1 Activity [2]: xxx (activity was measured to be less than 2.0 μM)

Structure (SMILES): CCN(CC)C(=O)N[C@H]1CC2(CCN(C3CC4CC[C@@H]3C4)CC2)c2ccccc21 (stereo partly shown) [compound 755]
Emax [1]: 25 to 100%
M4 Activity [1]: xxx (activity was measured to be less than 2.0 μM)
Emax [2]: < 25%
M1 Activity [2]: x (activity was measured to be greater than 5.0 μM)

Structure (SMILES): CCOC(=O)N1CCC(N2CCC3(CC2)CN(C2CCCC2=O)c2ccc(F)cc23)CC1 (stereo not shown) [compound 756]
Emax [1]: 25 to 100%
M4 Activity [1]: xxx (activity was measured to be less than 2.0 μM)
Emax [2]: 25 to 100%
M1 Activity [2]: xxx (activity was measured to be less than 2.0 μM)

Structure (SMILES): CC(=O)N1CC2(CCN(CC3CCN(C(=O)OC4CCC4)CC3)CC2)c2cc(C)ccc21 [compound 757]
Emax [1]: < 25%
M4 Activity [1]: x (activity was measured to be greater than 5.0 μM)
Emax [2]: < 25%
M1 Activity [2]: x (activity was measured to be greater than 5.0 μM)

Structure (SMILES): CC1(C)C(=O)c2ccccc2C12CCN([C@@H]1C[C@@H]3CC[C@H]1C3)CC2 [compound 758]
Emax [1]: < 25%
M4 Activity [1]: x (activity was measured to be greater than 5.0 μM)
Emax [2]: < 25%
M1 Activity [2]: x (activity was measured to be greater than 5.0 μM)

Structure (SMILES): CC(=O)N[C@H]1CC2(CCN(C3CCC(C(C)C)CC3)CC2)c2ccccc21 (stereo partly shown) [compound 759]
Emax [1]: < 25%
M4 Activity [1]: x (activity was measured to be greater than 5.0 μM)
Emax [2]: < 25%
M1 Activity [2]: x (activity was measured to be greater than 5.0 μM)

Structure (SMILES): COc1ccc(N2CCC(N3CCC4(CC3)CN(C(=O)N(C)C)c3ccc(F)cc34)CC2)nn1 [compound 760]
Emax [1]: 25 to 100%
M4 Activity [1]: xxx (activity was measured to be less than 2.0 μM)
Emax [2]: 25 to 100%
M1 Activity [2]: x (activity was measured to be greater than 5.0 μM)

Structure (SMILES): CC#CCOC(=O)N1CC[C@H](CN2CCC3(CC2)CN(C(=O)N(C)C)c2ccc(F)cc23)C1 [compound 761]
Emax [1]: 25 to 100%
M4 Activity [1]: xxx (activity was measured to be less than 2.0 μM)
Emax [2]: 25 to 100%
M1 Activity [2]: xxx (activity was measured to be less than 2.0 μM)

Structure (SMILES): Cc1ncc(N2CCC(N3CCC4(CC3)CN(C(=O)N(C)C)c3ccc(F)cc34)CC2)nc1C [compound 762]
Emax [1]: 25 to 100%
M4 Activity [1]: xxx (activity was measured to be less than 2.0 μM)
Emax [2]: 25 to 100%
M1 Activity [2]: xxx (activity was measured to be less than 2.0 μM)

Structure (SMILES): CC(=O)N[C@H]1CCC2(CCN(CCC3=C(C)CCCC3(C)C)CC2)c2ccccc21 [compound 764]
Emax [1]: < 25%
M4 Activity [1]: xxx (activity was measured to be less than 2.0 μM)
Emax [2]: 25 to 100%
M1 Activity [2]: xxx (activity was measured to be less than 2.0 μM)

Emax [1]: < 25%
Emax [2]: 25 to 100%
Structure (SMILES): CCOC(=O)N1CCC(N2CCC3(CC(=O)c4cc(F)ccc43)C2)CC1 (stereo not shown) [compound 765]
M4 Activity [1]: x (activity was measured to be greater than 5.0 μM)
M1 Activity [2]: x (activity was measured to be greater than 5.0 μM)

Structure (SMILES): O=C1CCCN1[C@H]1CCC2(CCN([C@@H]3CC4CC[C@H]3C4)CC2)c2ccccc21 [compound 766]
Emax [1]: 25 to 100%
M4 Activity [1]: xxx (activity was measured to be less than 2.0 μM)
Emax [2]: 25 to 100%
M1 Activity [2]: xxx (activity was measured to be less than 2.0 μM)

Structure (SMILES): CN(C)C(=O)N1CC2(CCN(C3CCN(C(=O)c4ccc(F)cc4)CC3)CC2)c2cc(F)ccc21 [compound 767]
Emax [1]: < 25%
M4 Activity [1]: x (activity was measured to be greater than 5.0 μM)
Emax [2]: 25 to 100%
M1 Activity [2]: x (activity was measured to be greater than 5.0 μM)

Structure (SMILES): CCOC(=O)N1CCC(N2CCC3(CC2)CN(C(C)=O)c2c(-c4ccc(C)cc4)cccc23)CC1 [compound 768]
Emax [1]: < 25%
M4 Activity [1]: x (activity was measured to be greater than 5.0 μM)
Emax [2]: 25 to 100%
M1 Activity [2]: x (activity was measured to be greater than 5.0 μM)

Structure (SMILES): CCOC(=O)N1CCC(N2CCC3(CC2)CN(C(C)=O)c2ccc(Br)cc23)CC1 [compound 769]
Emax [1]: 25 to 100%
M4 Activity [1]: xxx (activity was measured to be less than 2.0 μM)
Emax [2]: 25 to 100%
M1 Activity [2]: xxx (activity was measured to be less than 2.0 μM)

Structure (SMILES): COc1cccc(C(=O)N2CCC(N3CCC4(CC3)CN(C(=O)N(C)C)c3ccc(F)cc34)CC2)c1 [compound 770]
Emax [1]: < 25%
M4 Activity [1]: xx (activity was measured to be between 2.0 μM and 5.0 μM)
Emax [2]: 25 to 100%
M1 Activity [2]: xxx (activity was measured to be less than 2.0 μM)

Reference: patent publication US7786141B2 (Vertex Pharmaceuticals Incorporated, priority 2004, dated 2010)
